Data taken from PMC8722715 (Frontiers in Cell and Developmental Biology, 2021).

Experiments:
hNaV1.6 channel = target: T1, hNaV1.6 channel (Homo sapiens, UniProt Q9UQD0); assay: Automated patch-clamp block of hNaV1.6 peak Na+ current in HEK-293 cells; format: cell-based; details: for IC50: HEK-293 cells stably expressing hNaV1.6, SyncroPatch 384 PE whole-cell, holding -100 mV, 0 mV test pulse 50 ms every 5 s, room temperature 18-22°C, 0.3% BSA, steady state or end of 15-min application, mean, S.E.M. and n cells; for hNaV1.6 IC50 versus WT: ratio of analogue mean IC50 to HwTx-IV WT mean IC50 on hNaV1.6
T1 construct: expressed in transfected cells
Protocol: (§1) CHO cells stably expressing the hNaV1.7 channel subtype were cultured in Dulbecco’s Modified Eagle’s Medium F-12 (DMEM/F12) supplemented with 10% fetal bovine serum, 2 mM glutamine, 200 μg/ml hygromycine B, 10 U/ml penicillin and 10 μg/ml streptomycin (Gibco, Grand Island, NY). HEK-293 cells stably expressing the hNaV1.6 channel subtype were cultured in Dulbecco’s Modified Eagle’s Medium (DMEM) supplemented with 10% fetal calf serum, 1 mM pyruvic acid, 4.5 g/L glucose, 2 mM glutamine, 800 μg/ml G418, 10 U/ml penicillin and 10 μg/ml streptomycin (Gibco, Grand Island, NY). All cell lines were incubated at 37°C in a 5% CO2 atmosphere. For electrophysiological recordings, cells were detached with trypsin, and floating single cells were diluted (∼300,000 cells/ml) in an extracellular solution containing (in mM): 140 NaCl, 4 KCl, 2 CaCl2, 1 MgCl2, 5 glucose and 10 HEPES (pH 7.4, osmolarity 298 mOsm), that was used throughout the experiments.
(§2) HwTx-IV analogues were investigated on CHO cells expressing hNav1.7 channel and HEK-293 cells expressing hNaV1.6 channel using the automated patch-clamp system from Nanion (SyncroPatch 384 PE; München, Germany). Chips with single-hole and high-resistance (∼6–7 MΩ) were used for both cell lines. Voltage pulses and whole-cell recordings were achieved using the PatchControl384 v1.5.2 software (Nanion) and the Biomek v1.0 interface (Beckman Coulter). Prior to recordings, dissociated cells were shaken at 200 RPM in a cell hotel reservoir at 10°C. After cell catching, sealing, whole-cell formation, liquid application, recording, and data acquisition were all performed sequentially and automatically. The intracellular solution contained (in mM): 110 CsF, 10 CsCl, 10 NaCl, 1 MgCl2, 1 CaCl2, 10 EGTA and 10 HEPES (pH 7.2, osmolarity 280 mOsm), and the extracellular solution was as described above. Whole-cell experiments were done at −100 mV holding potential and at room temperature (18–22°C), while currents triggered at either −10 or 0 mV test potential were sampled at 20 kHz. Stimulation frequency was set at 0.2 Hz. Each HwTx-IV analogue was prepared at various concentrations in the extracellular solution, itself supplemented with 0.3% of bovine serum albumin (BSA), also added in the control solution. The peptides were distributed in 384-well microplates according to the number of compounds to be tested (generally four), the concentration range defined from the IC50 of wild-type HwTx-IV, and the number of cells desired for each experimental condition. Compound solutions were diluted 3 times in the patch-clamp recording well by adding 30–60 μl external solution, to reach the final reported concentration and the test volume of 90 μl. For establishing dose-response curves, the compounds were tested at a test potential of either −10 or 0 mV for 50 ms with a pulse every 5 s. Percentages of current inhibition were measured at steady-state of blockage or at the end of a 15-min application time.

hNaV1.7 channel = target: T2, hNaV1.7 channel (Homo sapiens, UniProt Q15858); assay: Automated patch-clamp block of hNaV1.7 peak Na+ current in CHO cells; format: cell-based; details: for IC50: CHO cells stably expressing hNaV1.7, SyncroPatch 384 PE whole-cell, holding -100 mV, -10 mV test pulse 50 ms every 5 s, room temperature 18-22°C, 0.3% BSA, steady state or end of 15-min application, mean, S.E.M. and n cells; for hNaV1.7 IC50 versus WT: ratio of analogue mean IC50 to HwTx-IV WT mean IC50 on hNaV1.7
T2 construct: expressed in transfected cells
Protocol: as §1
as §2, with “The peptides were distributed in 384-well microplates according to the number of compounds to be tested (generally four), the concentration range defined from the IC50 of wild-type HwTx-IV, and the number of cells desired for each experimental condition.” left out

T2 sequence (Q15858 whole entry): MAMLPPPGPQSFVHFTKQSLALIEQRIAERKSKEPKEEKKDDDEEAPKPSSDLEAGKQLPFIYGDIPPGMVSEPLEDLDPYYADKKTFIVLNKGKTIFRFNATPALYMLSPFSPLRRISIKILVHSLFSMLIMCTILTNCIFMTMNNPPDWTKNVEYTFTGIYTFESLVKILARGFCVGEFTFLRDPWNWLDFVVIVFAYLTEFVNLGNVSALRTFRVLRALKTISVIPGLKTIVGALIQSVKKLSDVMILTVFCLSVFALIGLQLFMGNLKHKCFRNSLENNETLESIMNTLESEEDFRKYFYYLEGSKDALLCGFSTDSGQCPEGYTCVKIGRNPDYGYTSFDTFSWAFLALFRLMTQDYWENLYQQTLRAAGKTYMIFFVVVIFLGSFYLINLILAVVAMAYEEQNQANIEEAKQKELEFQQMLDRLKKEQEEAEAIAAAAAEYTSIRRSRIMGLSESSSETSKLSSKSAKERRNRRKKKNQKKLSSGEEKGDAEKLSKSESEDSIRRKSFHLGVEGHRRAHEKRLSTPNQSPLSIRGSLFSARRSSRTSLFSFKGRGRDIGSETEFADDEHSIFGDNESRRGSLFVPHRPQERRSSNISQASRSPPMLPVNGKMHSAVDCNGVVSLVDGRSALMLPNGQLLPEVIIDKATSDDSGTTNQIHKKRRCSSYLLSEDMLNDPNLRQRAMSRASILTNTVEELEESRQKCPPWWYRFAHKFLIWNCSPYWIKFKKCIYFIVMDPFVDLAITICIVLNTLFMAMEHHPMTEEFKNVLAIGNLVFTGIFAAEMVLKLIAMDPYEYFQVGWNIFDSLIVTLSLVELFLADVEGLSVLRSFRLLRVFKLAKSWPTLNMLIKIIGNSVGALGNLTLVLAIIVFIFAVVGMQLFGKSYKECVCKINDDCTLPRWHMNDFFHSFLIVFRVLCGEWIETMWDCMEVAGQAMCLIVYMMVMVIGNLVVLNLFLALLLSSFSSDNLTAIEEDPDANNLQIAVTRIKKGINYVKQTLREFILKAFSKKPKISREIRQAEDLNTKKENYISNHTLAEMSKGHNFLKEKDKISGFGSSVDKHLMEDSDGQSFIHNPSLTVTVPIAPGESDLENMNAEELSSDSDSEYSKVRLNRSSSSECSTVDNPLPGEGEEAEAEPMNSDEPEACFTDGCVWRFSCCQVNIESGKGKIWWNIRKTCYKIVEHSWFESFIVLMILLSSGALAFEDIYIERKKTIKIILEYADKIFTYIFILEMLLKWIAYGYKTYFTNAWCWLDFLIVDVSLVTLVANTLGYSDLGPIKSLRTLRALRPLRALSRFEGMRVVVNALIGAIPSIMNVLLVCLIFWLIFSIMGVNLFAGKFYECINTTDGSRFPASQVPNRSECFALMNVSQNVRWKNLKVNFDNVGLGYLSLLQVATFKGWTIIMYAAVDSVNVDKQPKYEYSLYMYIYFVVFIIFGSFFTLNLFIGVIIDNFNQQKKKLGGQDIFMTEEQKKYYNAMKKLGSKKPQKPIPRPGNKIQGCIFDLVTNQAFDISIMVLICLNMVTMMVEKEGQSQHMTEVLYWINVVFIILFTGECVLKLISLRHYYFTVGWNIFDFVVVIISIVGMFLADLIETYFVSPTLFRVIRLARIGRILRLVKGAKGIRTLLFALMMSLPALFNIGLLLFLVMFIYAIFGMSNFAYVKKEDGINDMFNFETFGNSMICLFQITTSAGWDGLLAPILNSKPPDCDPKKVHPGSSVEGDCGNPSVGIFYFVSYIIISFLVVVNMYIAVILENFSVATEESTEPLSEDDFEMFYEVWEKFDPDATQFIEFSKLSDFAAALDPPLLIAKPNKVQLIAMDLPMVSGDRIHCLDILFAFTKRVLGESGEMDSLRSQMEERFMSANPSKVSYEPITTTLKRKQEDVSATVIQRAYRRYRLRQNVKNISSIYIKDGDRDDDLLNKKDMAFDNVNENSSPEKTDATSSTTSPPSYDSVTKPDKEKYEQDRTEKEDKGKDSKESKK
T1 sequence (Q9UQD0 whole entry): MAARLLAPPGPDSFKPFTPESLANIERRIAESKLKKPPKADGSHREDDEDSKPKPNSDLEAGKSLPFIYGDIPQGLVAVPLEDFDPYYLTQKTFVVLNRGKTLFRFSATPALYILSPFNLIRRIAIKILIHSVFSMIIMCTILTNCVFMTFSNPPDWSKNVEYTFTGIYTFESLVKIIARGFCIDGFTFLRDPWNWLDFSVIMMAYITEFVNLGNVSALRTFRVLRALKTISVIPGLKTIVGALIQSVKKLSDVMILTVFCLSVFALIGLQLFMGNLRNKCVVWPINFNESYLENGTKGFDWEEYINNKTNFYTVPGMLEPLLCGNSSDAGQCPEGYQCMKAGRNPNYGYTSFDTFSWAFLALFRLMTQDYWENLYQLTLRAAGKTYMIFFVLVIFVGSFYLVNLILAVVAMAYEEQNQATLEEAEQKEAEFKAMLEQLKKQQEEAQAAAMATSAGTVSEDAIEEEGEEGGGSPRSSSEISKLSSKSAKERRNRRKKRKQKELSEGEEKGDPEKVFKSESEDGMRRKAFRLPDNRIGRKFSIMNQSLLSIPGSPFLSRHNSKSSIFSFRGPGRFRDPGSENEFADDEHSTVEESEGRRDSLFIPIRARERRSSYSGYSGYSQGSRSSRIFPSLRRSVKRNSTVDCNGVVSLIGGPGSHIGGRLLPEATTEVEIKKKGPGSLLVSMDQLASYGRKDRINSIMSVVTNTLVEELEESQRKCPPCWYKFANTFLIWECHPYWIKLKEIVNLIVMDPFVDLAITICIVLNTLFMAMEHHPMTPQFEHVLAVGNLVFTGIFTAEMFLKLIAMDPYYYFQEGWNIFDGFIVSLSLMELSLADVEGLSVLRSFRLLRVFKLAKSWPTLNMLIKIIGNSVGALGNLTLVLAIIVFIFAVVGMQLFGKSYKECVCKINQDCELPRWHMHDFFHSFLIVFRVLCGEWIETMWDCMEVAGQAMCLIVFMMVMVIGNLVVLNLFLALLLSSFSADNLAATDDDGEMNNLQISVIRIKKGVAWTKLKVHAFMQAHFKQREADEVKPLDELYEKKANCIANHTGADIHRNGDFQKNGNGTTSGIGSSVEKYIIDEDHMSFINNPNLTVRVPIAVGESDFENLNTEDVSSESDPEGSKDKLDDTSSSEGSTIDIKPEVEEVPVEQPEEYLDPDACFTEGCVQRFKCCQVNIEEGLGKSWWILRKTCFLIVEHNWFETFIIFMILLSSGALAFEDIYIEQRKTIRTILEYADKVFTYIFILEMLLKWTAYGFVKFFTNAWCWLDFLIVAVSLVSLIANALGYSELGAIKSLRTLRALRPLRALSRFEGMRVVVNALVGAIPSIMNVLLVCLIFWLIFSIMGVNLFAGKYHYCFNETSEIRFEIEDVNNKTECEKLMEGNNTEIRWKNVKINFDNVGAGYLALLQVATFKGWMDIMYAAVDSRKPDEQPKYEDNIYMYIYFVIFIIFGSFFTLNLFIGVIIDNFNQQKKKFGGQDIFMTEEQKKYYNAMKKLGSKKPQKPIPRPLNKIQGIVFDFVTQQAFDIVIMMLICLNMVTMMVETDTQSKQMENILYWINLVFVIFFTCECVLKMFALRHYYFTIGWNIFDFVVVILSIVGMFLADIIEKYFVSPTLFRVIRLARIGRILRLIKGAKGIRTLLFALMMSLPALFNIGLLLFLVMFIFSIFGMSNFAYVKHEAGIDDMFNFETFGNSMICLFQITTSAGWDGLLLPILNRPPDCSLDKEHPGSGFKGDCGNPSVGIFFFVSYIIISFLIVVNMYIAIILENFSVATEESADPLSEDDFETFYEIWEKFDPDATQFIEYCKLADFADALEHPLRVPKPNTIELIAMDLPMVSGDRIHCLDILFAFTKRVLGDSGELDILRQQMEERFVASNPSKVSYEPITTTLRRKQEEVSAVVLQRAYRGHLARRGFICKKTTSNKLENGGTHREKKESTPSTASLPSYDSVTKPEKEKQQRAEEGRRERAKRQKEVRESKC

| Compound | IC50 (hNaV1.6 channel) | hNaV1.6 IC50 versus WT (hNaV1.6 channel) | IC50 (hNaV1.7 channel) | hNaV1.7 IC50 versus WT (hNaV1.7 channel) | hNaV1.7/hNaV1.6 selectivity ratio (hNaV1.7 channel; inverse ratio of the mean IC50 values on hNaV1.7 (CHO) and hNaV1.6 (HEK-293) of Table 1) |
| --- | --- | --- | --- | --- | --- |
| CC[C@H](C)[C@H](NC(=O)[C@H](CCC(N)=O)NC(=O)[C@H](Cc1ccc(O)cc1)NC(=O)[C@H](CCCCN)NC(=O)[C@@H]1CSSC[C@@H]2NC(=O)[C@H](CCC(N)=O)NC(=O)[C@H](CC(=O)O)NC(=O)[C@H](CC(N)=O)NC(=O)[C@H](CO)NC(=O)[C@@H]3CCCN3C(=O)[C@H](CC(N)=O)NC(=O)[C@@H]3CSSC[C@H](NC(=O)[C@H](C(C)C)NC(=O)[C@H](CC(C)C)NC(=O)[C@H](CCCCN)NC(=O)[C@H](CO)NC(=O)[C@H](CO)NC(=O)[C@H](CCCCN)NC(=O)[C@H](CSSC[C@H](NC(=O)[C@@H](N)CCC(=O)O)C(=O)N[C@@H](CC(C)C)C(=O)N[C@@H](CCC(=O)O)C(=O)N[C@@H]([C@@H](C)CC)C(=O)N[C@@H](Cc4ccccc4)C(=O)N[C@@H](CCCCN)C(=O)N[C@@H](C)C(=O)N3)NC2=O)C(=O)N[C@@H](CO)C(=O)N[C@@H](CCCNC(=N)N)C(=O)N[C@@H](CCCCN)C(=O)N[C@@H]([C@@H](C)O)C(=O)N[C@@H](CCCNC(=N)N)C(=O)N[C@@H](Cc2c[nH]c3ccccc23)C(=O)N1)C(=O)O [HwTx-IV CterCOOH] | 1230 nM | 5.43 | 176 nM | 17.81 | – |
| CC[C@H](C)[C@H](NC(=O)[C@H](CCC(N)=O)NC(=O)[C@H](Cc1ccc(O)cc1)NC(=O)[C@H](CCCCN)NC(=O)[C@@H]1CSSC[C@@H]2NC(=O)[C@H](CCC(N)=O)NC(=O)[C@H](CC(=O)O)NC(=O)[C@H](CC(N)=O)NC(=O)[C@H](CO)NC(=O)[C@@H]3CCCN3C(=O)[C@H](CC(N)=O)NC(=O)[C@@H]3CSSC[C@H](NC(=O)[C@H](C(C)C)NC(=O)[C@H](CC(C)C)NC(=O)[C@H](CCCCN)NC(=O)[C@H](CO)NC(=O)[C@H](CO)NC(=O)[C@H](C)NC(=O)[C@H](CSSC[C@H](NC(=O)CN)C(=O)N[C@@H](CC(C)C)C(=O)NCC(=O)N[C@@H]([C@@H](C)CC)C(=O)N[C@@H](Cc4ccccc4)C(=O)N[C@@H](CCCCN)C(=O)N[C@@H](C)C(=O)N3)NC2=O)C(=O)N[C@@H](CO)C(=O)N[C@@H](CCCNC(=N)N)C(=O)N[C@@H](CCCCN)C(=O)N[C@@H]([C@@H](C)O)C(=O)N[C@@H](CCCNC(=N)N)C(=O)N[C@@H](Cc2c[nH]c3ccccc23)C(=O)N1)C(N)=O [HwTx-IV E^1G/E^4G/K^18A] | 4.9 nM | 0.02 | 0.8 nM | 0.08 | – |
| CC[C@H](C)[C@H](NC(=O)[C@H](CCC(N)=O)NC(=O)[C@H](Cc1ccc(O)cc1)NC(=O)[C@H](CCCCN)NC(=O)[C@@H]1CSSC[C@@H]2NC(=O)[C@H](CCC(N)=O)NC(=O)[C@H](CC(=O)O)NC(=O)[C@H](CC(N)=O)NC(=O)[C@H](CO)NC(=O)[C@@H]3CCCN3C(=O)[C@H](CC(N)=O)NC(=O)[C@@H]3CSSC[C@H](NC(=O)[C@H](C(C)C)NC(=O)[C@H](CC(C)C)NC(=O)[C@H](CCCCN)NC(=O)[C@H](CO)NC(=O)[C@H](CO)NC(=O)[C@H](CCCCN)NC(=O)[C@H](CSSC[C@H](NC(=O)CN)C(=O)N[C@@H](CC(C)C)C(=O)NCC(=O)N[C@@H]([C@@H](C)CC)C(=O)N[C@@H](Cc4ccccc4)C(=O)N[C@@H](CCCCN)C(=O)N[C@@H](C)C(=O)N3)NC2=O)C(=O)N[C@@H](CO)C(=O)N[C@@H](CCCNC(=N)N)C(=O)N[C@@H](CCCCN)C(=O)N[C@@H]([C@@H](C)O)C(=O)N[C@@H](CCCNC(=N)N)C(=O)N[C@@H](Cc2c[nH]c3ccccc23)C(=O)N1)C(N)=O [HwTx-IV E^1G/E^4G] | 3.7 nM | 0.02 | 2 nM | 0.20 | less than 2 |
| CC[C@H](C)[C@H](NC(=O)[C@H](CCC(N)=O)NC(=O)[C@H](Cc1ccc(O)cc1)NC(=O)[C@H](CCCCN)NC(=O)[C@@H]1CSSC[C@@H]2NC(=O)[C@H](CCC(N)=O)NC(=O)[C@H](CC(=O)O)NC(=O)[C@H](CC(N)=O)NC(=O)[C@H](CO)NC(=O)[C@@H]3CCCN3C(=O)[C@H](CC(N)=O)NC(=O)[C@@H]3CSSC[C@H](NC(=O)[C@H](C(C)C)NC(=O)[C@H](CC(C)C)NC(=O)[C@H](CCCCN)NC(=O)[C@H](CO)NC(=O)[C@H](CO)NC(=O)[C@H](CCCCN)NC(=O)[C@H](CSSC[C@H](NC(=O)[C@@H](N)CCC(=O)O)C(=O)N[C@@H](CC(C)C)C(=O)N[C@@H](CCC(=O)O)C(=O)N[C@@H]([C@@H](C)CC)C(=O)N[C@@H](Cc4ccccc4)C(=O)N[C@@H](CCCCN)C(=O)N[C@@H](C)C(=O)N3)NC2=O)C(=O)N[C@@H](CO)C(=O)N[C@@H](CCCNC(=N)N)C(=O)N[C@@H](CCCCN)C(=O)N[C@@H](Cc2c[nH]c3ccccc23)C(=O)N[C@@H](CCCNC(=N)N)C(=O)N[C@@H](Cc2c[nH]c3ccccc23)C(=O)N1)C(N)=O [HwTx-IV T^28W] | – | – | 114 nM | 11.53 | – |
